Results: publication PMC6437058 (mBio, 2019)

Target: anthranilate synthase TrpE (Rv1609) (Mycobacterium tuberculosis, UniProt P9WFX3)
Test: biochemical

Sequence of anthranilate synthase TrpE (Rv1609) (P9WFX3 whole entry): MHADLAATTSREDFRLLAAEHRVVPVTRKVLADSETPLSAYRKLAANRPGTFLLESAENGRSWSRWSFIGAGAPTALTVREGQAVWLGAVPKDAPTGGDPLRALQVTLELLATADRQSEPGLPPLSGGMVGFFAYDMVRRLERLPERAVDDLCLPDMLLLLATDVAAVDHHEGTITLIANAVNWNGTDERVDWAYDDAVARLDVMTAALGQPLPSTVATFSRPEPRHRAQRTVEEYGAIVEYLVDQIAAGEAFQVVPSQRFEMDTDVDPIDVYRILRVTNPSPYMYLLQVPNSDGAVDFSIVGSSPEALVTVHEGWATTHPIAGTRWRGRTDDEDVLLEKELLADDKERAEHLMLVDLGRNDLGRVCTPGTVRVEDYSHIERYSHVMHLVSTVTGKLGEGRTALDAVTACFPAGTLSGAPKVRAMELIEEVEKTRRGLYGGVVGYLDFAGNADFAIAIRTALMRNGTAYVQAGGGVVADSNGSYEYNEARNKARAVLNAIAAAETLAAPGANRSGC

## N[C@@H](Cc1c[nH]c2ccc(F)cc12)C(=O)O [F-Trp, 5-fluoro-L-tryptophan]
  IC50: 4.1 µM
